How the values were obtained:
Experiment in all cases: Test F preemergence
Format in all cases: in vivo
Conditions in all cases: 21 days, scale 0 to 100
[1] = tested on: Italian ryegrass (Lolium multiflorum)
Source text: (§1) Seeds of plant species selected from bermudagrass (Cynodon dactylon), Surinam grass (Brachiaria decumbens), large (Lg) crabgrass (Digitaria sanguinalis), crabgrass, naked (naked crabgrass, Digitaria nuda), foxtail, green (green foxtail, Setaria viridis), johnsongrass (Sorghum halepense), kochia (Kochia scoparia), morningglory (pitted morningglory, Ipomoea lacunosa), nutsedge, purple (purple nutsedge, Cyperus rotundus), ragweed (common ragweed, Ambrosia elatior), mustard, black (black mustard, Brassica nigra), guineagrass (Panicum maximum), dallisgrass (Paspalum dilatatum), barnyardgrass (Echinochloa crus-galli), sandbur (southern sandbur, Cenchrus echinatus), sowthistle (common sowthistle, Sonchus oleraceous), Italian ryegrass (Lolium multiflorum), signalgrass (broadleaf signalgrass, Brachiaria platyphylla), dayflower (Virginia (VA) dayflower, Commelina virginica), bluegrass (annual bluegrass, Poa annua), quackgrass (Elytrigia repens), mallow (common mallow, Malva sylvestris), buckwheat, wild (wild buckwheat, Polygonum convolvulus), leafy spurge (Euphorbia esula), chickweed (common chickweed, Stellaria media), wild poinsettia (Euphorbia heterophylla), and pigweed (Amaranthus retroflexus) were planted into a blend of loam soil and sand and treated preemergence with test a chemical formulated in a non-phytotoxic solvent mixture which included a surfactant.
(§2) Treated plants and controls were maintained in a greenhouse for 21 days, after which time all species were compared to controls and visually evaluated. Plant response ratings, summarized in Table F, are based on a scale of 0 to 100 where 0 is no effect and 100 is complete control. A dash (-) response means no test result.

[2] = tested on: Surinam grass (Brachiaria decumbens)
Source text: as §1, §2

[3] = tested on: barnyardgrass (Echinochloa crus-galli)
Source text: as §1, §2

[4] = tested on: bermudagrass (Cynodon dactylon)
Source text: as §1, §2

[5] = tested on: bluegrass (annual bluegrass, Poa annua)
Source text: as §1, §2

[6] = tested on: buckwheat, wild (wild buckwheat, Polygonum convolvulus)
Source text: as §1, §2

[7] = tested on: chickweed (common chickweed, Stellaria media)
Source text: as §1, §2

[8] = tested on: crabgrass, naked (naked crabgrass, Digitaria nuda)
Source text: as §1, §2

[9] = tested on: dallisgrass (Paspalum dilatatum)
Source text: as §1, §2

[10] = tested on: foxtail, green (green foxtail, Setaria viridis)
Source text: as §1, §2

[11] = tested on: guineagrass (Panicum maximum)
Source text: as §1, §2

[12] = tested on: johnsongrass (Sorghum halepense)
Source text: as §1, §2

kochia (Kochia scoparia) = tested on: kochia (Kochia scoparia)
Source text: as §1, §2

[13] = tested on: large (Lg) crabgrass (Digitaria sanguinalis)
Source text: as §1, §2

[14] = tested on: leafy spurge (Euphorbia esula)
Source text: as §1, §2

[15] = tested on: mallow (common mallow, Malva sylvestris)
Source text: as §1, §2

[16] = tested on: morningglory (pitted morningglory, Ipomoea lacunosa)
Source text: as §1, §2

[17] = tested on: mustard, black (black mustard, Brassica nigra)
Source text: as §1, §2

[18] = tested on: nutsedge, purple (purple nutsedge, Cyperus rotundus)
Source text: as §1, §2

[19] = tested on: pigweed (Amaranthus retroflexus)
Source text: as §1, §2

[20] = tested on: quackgrass (Elytrigia repens)
Source text: as §1, §2

[21] = tested on: ragweed (common ragweed, Ambrosia elatior)
Source text: as §1, §2

[22] = tested on: sandbur (southern sandbur, Cenchrus echinatus)
Source text: as §1, §2

[23] = tested on: signalgrass (broadleaf signalgrass, Brachiaria platyphylla)
Source text: as §1, §2

[24] = tested on: sowthistle (common sowthistle, Sonchus oleraceous)
Source text: as §1, §2

[25] = tested on: wild poinsettia (Euphorbia heterophylla)
Source text: as §1, §2

N#Cc1cccc(Oc2ncc(Cl)cn2)c1Oc1ncc(Cl)cn1 [Compound 3, 2,3-bis[(5-chloro-2-pyrimidinyl)oxy]benzonitrile]
Plant response rating, Ryegrass, Italian ([1]; 62 g ai/ha): 95
Plant response rating, Ryegrass, Italian ([1]; 125 g ai/ha): 100
Plant response rating, Ryegrass, Italian ([1]; 250 g ai/ha): 100
Plant response rating, Surinam Grass ([2]; 62 g ai/ha): 75
Plant response rating, Surinam Grass ([2]; 125 g ai/ha): 100
Plant response rating, Surinam Grass ([2]; 250 g ai/ha): 100
Plant response rating, Barnyardgrass ([3]; 62 g ai/ha): 98
Plant response rating, Barnyardgrass ([3]; 125 g ai/ha): 100
Plant response rating, Barnyardgrass ([3]; 250 g ai/ha): 100
Plant response rating, Bermudagrass ([4]; 62 g ai/ha): 100
Plant response rating, Bermudagrass ([4]; 125 g ai/ha): 100
Plant response rating, Bermudagrass ([4]; 250 g ai/ha): 100
Plant response rating, Bluegrass ([5]; 62 g ai/ha): 80
Plant response rating, Bluegrass ([5]; 125 g ai/ha): 100
Plant response rating, Bluegrass ([5]; 250 g ai/ha): 100
Plant response rating, Buckwheat, Wild ([6]; 62 g ai/ha): 100
Plant response rating, Buckwheat, Wild ([6]; 125 g ai/ha): 100
Plant response rating, Buckwheat, Wild ([6]; 250 g ai/ha): 100
Plant response rating, Chickweed ([7]; 62 g ai/ha): 100
Plant response rating, Chickweed ([7]; 125 g ai/ha): 100
Plant response rating, Chickweed ([7]; 250 g ai/ha): 100
Plant response rating, Crabgrass, Naked ([8]; 62 g ai/ha): 100
Plant response rating, Crabgrass, Naked ([8]; 125 g ai/ha): 100
Plant response rating, Crabgrass, Naked ([8]; 250 g ai/ha): 100
Plant response rating, Dallisgrass ([9]; 62 g ai/ha): 100
Plant response rating, Dallisgrass ([9]; 125 g ai/ha): 100
Plant response rating, Dallisgrass ([9]; 250 g ai/ha): 100
Plant response rating, Foxtail, Green ([10]; 62 g ai/ha): 100
Plant response rating, Foxtail, Green ([10]; 125 g ai/ha): 100
Plant response rating, Foxtail, Green ([10]; 250 g ai/ha): 100
Plant response rating, Guineagrass ([11]; 62 g ai/ha): 100
Plant response rating, Guineagrass ([11]; 125 g ai/ha): 100
Plant response rating, Guineagrass ([11]; 250 g ai/ha): 100
Plant response rating, Johnsongrass ([12]; 62 g ai/ha): 75
Plant response rating, Johnsongrass ([12]; 125 g ai/ha): 100
Plant response rating, Johnsongrass ([12]; 250 g ai/ha): 100
Plant response rating, Kochia (kochia (Kochia scoparia); 62 g ai/ha): 100
Plant response rating, Kochia (kochia (Kochia scoparia); 125 g ai/ha): 100
Plant response rating, Kochia (kochia (Kochia scoparia); 250 g ai/ha): 100
Plant response rating, Crabgrass, Large ([13]; 62 g ai/ha): 100
Plant response rating, Crabgrass, Large ([13]; 125 g ai/ha): 100
Plant response rating, Crabgrass, Large ([13]; 250 g ai/ha): 100
Plant response rating, Leafy Spurge ([14]; 62 g ai/ha): 98
Plant response rating, Leafy Spurge ([14]; 125 g ai/ha): 100
Plant response rating, Leafy Spurge ([14]; 250 g ai/ha): 98
Plant response rating, Mallow ([15]; 62 g ai/ha): 100
Plant response rating, Mallow ([15]; 125 g ai/ha): 100
Plant response rating, Mallow ([15]; 250 g ai/ha): 100
Plant response rating, Morningglory, Pitt ([16]; 62 g ai/ha): 100
Plant response rating, Morningglory, Pitt ([16]; 125 g ai/ha): 100
Plant response rating, Morningglory, Pitt ([16]; 250 g ai/ha): 100
Plant response rating, Mustard, Black ([17]; 62 g ai/ha): 100
Plant response rating, Mustard, Black ([17]; 125 g ai/ha): 100
Plant response rating, Mustard, Black ([17]; 250 g ai/ha): 100
Plant response rating, Nutsedge, Purple ([18]; 62 g ai/ha): 40
Plant response rating, Nutsedge, Purple ([18]; 125 g ai/ha): 60
Plant response rating, Nutsedge, Purple ([18]; 250 g ai/ha): 85
Plant response rating, Pigweed ([19]; 62 g ai/ha): 100
Plant response rating, Pigweed ([19]; 125 g ai/ha): 100
Plant response rating, Pigweed ([19]; 250 g ai/ha): 100
Plant response rating, Quackgrass ([20]; 62 g ai/ha): 65
Plant response rating, Quackgrass ([20]; 125 g ai/ha): 90
Plant response rating, Quackgrass ([20]; 250 g ai/ha): 98
Plant response rating, Ragweed ([21]; 62 g ai/ha): 85
Plant response rating, Ragweed ([21]; 125 g ai/ha): 100
Plant response rating, Ragweed ([21]; 250 g ai/ha): 100
Plant response rating, Sandbur ([22]; 62 g ai/ha): 35
Plant response rating, Sandbur ([22]; 125 g ai/ha): 100
Plant response rating, Sandbur ([22]; 250 g ai/ha): 100
Plant response rating, Signalgrass ([23]; 62 g ai/ha): 100
Plant response rating, Signalgrass ([23]; 125 g ai/ha): 100
Plant response rating, Signalgrass ([23]; 250 g ai/ha): 100
Plant response rating, Sowthistle ([24]; 62 g ai/ha): 100
Plant response rating, Sowthistle ([24]; 125 g ai/ha): 100
Plant response rating, Sowthistle ([24]; 250 g ai/ha): 100
Plant response rating, Poinsettia, Wild ([25]; 62 g ai/ha): 95
Plant response rating, Poinsettia, Wild ([25]; 125 g ai/ha): 95
Plant response rating, Poinsettia, Wild ([25]; 250 g ai/ha): 100
